Experimental data published in patent US20240116985A1, “STAPLED PEPTIDES AND METHODS THEREOF” (priority 2020, published 2024).
≈ marks a conversion by molar mass, not a printed value. Read-outs that look alike come from different tables or passages of the source.

Tests used:
[1] = target: T1, full-length beta-Catenin (Uniprot ID P35222) (Homo sapiens, UniProt P35222); experiment: Fluorescence polarization IC50 (beta-catenin / 5FAM-TCF4 10-53 competition); format: binding
T1 construct: 10 nM full-length beta-Catenin (Uniprot ID P35222)
T1 sequence (P35222 1-781): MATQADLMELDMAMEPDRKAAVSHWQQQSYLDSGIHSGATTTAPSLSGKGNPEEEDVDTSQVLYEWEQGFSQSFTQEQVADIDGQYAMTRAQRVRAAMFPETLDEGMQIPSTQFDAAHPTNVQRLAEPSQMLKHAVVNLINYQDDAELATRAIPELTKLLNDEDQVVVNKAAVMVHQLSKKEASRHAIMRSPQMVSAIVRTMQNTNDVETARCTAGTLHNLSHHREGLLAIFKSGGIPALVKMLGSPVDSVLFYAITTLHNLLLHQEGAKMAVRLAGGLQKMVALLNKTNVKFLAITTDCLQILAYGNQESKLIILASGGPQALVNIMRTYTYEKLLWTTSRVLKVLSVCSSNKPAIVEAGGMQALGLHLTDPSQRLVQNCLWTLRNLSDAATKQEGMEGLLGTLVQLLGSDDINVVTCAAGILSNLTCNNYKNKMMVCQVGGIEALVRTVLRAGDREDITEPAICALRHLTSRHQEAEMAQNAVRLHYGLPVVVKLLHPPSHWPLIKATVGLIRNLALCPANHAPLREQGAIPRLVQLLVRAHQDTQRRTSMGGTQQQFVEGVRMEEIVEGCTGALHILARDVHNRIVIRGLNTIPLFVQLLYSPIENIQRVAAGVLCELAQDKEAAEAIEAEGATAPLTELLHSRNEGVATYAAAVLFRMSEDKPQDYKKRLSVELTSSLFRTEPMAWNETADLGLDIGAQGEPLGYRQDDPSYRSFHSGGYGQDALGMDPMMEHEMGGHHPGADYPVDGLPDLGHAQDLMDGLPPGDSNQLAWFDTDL

[2] = CHI Log D procedure; format: physicochemical; conditions: for chromatographic logD: pH 7.4, CHI Log D
[3] = Solubility in PBS; format: physicochemical
Outline: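 Steps: ultracentrifuge the peptide PBS solution, inject the supernatant on HPLC, inject a 50 μM peptide DMSO solution as reference, then calculate solubility as area ratio (PBS/DMSO) × 50 uM.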

[4] = target: T2, beta-catenin/TCF4 engagement (Homo sapiens, UniProt P35222); experiment: Nano-BRET target engagement assay (B-cat-Halo & TCF4-Luc in HEK293 cells); format: cell-based; conditions: for inhibition at 10 µM: read-out: NanoBRET % inh @ 10 uM
T2 construct: expressed in transfected cells; host or cells: HEK293
T2 sequence (P35222 1-781): T1 sequence (P35222 1-781)

SMILES | IC50 ([1]; read-out: beta-Catenin FP IC50) [µM] | chromatographic logD [2] | Solubility ([3]; Solubility (uM)) [µM] | inhibition at 10 µM ([4]; HEK293, 10 uM) [%] | IC50 ([4]; read-out: NanoBRET IC50) [µM] | IC50 ([4]; read-out: NanoBRET Abs IC50) [µM] | Solubility [3] [µM] | IC50 ([1]; fluorescence polarization, read-out: beta-Catenin FP IC50) [µM] | IC50 ([1]; read-out: FP EC50) [µM] | CHI Log D ([2]; pH 7.4) | IC50 ([4]; absolute IC50, read-out: NanoBRET Abs IC50) [µM] | inhibition at 10 µM ([4]; HEK293, @ 10 uM) [%] | IC50 ([1]; fluorescence polarization, beta-catenin, read-out: FP EC50) [µM]
CC(=O)N1CCC[C@]12CC=CCCCC1(CCCC=CCCCOC(=O)N3CC[C@@](C(=O)N[C@@H](Cc4ccsc4)C(=O)N[C@@H](Cc4csc5ccccc45)C(=O)N[C@@H](C(N)=O)[C@H](C)O)(C3)NC(=O)[C@H](CC(N)=O)NC(=O)[C@H](Cc3ccccc3)NC(=O)[C@H](C)NC(=O)[C@H](C)NC(=O)[C@H](CC(=O)O)NC(=O)[C@H](CC(=O)O)NC1=O)NC(=O)[C@H](CC(C)(C)C)NC(=O)[C@H](CC(=O)O)NC2=O (stereo partly drawn) [I-817, Ac-PL3-Asp-Npg-B5-Asp-Asp-Ala-Ala-Phe-Asn-PyrS2-3Thi-BztA-dThr-NH2] | 0.01 | 2.23 | 47 (≈ 88.9 µg/mL) | 45 | 6.8 |  |  |  |  |  |  |  | 
CC(=O)N1CCC[C@]12CC=CCCCC1(CCCC=CCCCOC(=O)N3CC[C@@](C(=O)N[C@@H](Cc4ccccc4Cl)C(=O)N[C@@H](Cc4csc5ccccc45)C(=O)N[C@@H](CCC(N)=O)C(N)=O)(C3)NC(=O)[C@H](CO)NC(=O)[C@H](Cc3ccc(C(F)(F)F)cc3)NC(=O)[C@H](C)NC(=O)[C@H](C)NC(=O)[C@H](CC(=O)O)NC(=O)[C@H](CC(=O)O)NC1=O)NC(=O)[C@H](CC1CCCCC1)NC(=O)[C@H](CC(=O)O)NC2=O (stereo partly drawn) [I-1120, Ac-PL3-Asp-Cha-B5-Asp-Asp-Ala-Ala-4F3MeF-Ser-PyrS2-2C1F-BztA-Gln-NH2] | 0.085 | 2.54 | 41 (≈ 82.6 µg/mL) |  |  | > 20 |  |  |  |  |  |  | 
CC[C@H](C)[C@@H]1NC(=O)[C@H](CC(=O)O)NC(=O)[C@]2(CC=CCCCC3(CCCC=CCCCCCC[C@@](C)(C(=O)N[C@@H](Cc4ccccc4)C(=O)N[C@@H](Cc4csc5ccccc45)C(=O)N[C@@H](CCC(N)=O)C(N)=O)NC(=O)[C@H](CCC(N)=O)NC(=O)[C@H](Cc4ccccc4)NC(=O)[C@H](C)NC(=O)[C@H](CCC(N)=O)NC(=O)[C@H](CCC(=O)O)NC(=O)[C@H](CC(=O)O)NC3=O)NC1=O)CCCN2C(C)=O (stereo partly drawn) [I-654, Ac-PL3-Asp-Ile-B5-Asp-Glu-Gln-Ala-Phe-Gln-S8-Phe-BztA-Gln-NH2] |  |  |  |  |  |  | 47 (≈ 91.2 µg/mL) | 0.02 | 0.02 | 2.121 | 15 |  | 
CC(=O)N1CCC[C@]12CC=CCCCC1(CCCC=CCCCOC(=O)N3CC[C@@](C(=O)N[C@@H](Cc4ccccc4Cl)C(=O)N[C@@H](Cc4csc5ccccc45)C(=O)N[C@@H](CCC(N)=O)C(N)=O)(C3)NC(=O)[C@H](CO)NC(=O)[C@H](Cc3ccccc3)NC(=O)[C@H](C)NC(=O)[C@H](C)NC(=O)[C@H](CC(N)=O)NC(=O)[C@H](CC(=O)O)NC1=O)NC(=O)[C@H](CC(C)(C)C)NC(=O)[C@H](CC(=O)O)NC2=O (stereo partly drawn) [I-1018, Ac-PL3-Asp-Npg-B5-Asp-Asn-Ala-Ala-Phe-Ser-PyrS2-2C1F-BztA-Gln-NH2] | 0.026 | 2.35 |  |  |  | 25.8 | 10 (≈ 19.2 µg/mL) |  |  |  |  |  | 
CC(=O)N1CCC[C@]12CC=CCCCC1(CCCC=CCCCOC(=O)N3CC[C@@](C(=O)N[C@@H](Cc4ccsc4)C(=O)N[C@@H](Cc4csc5ccccc45)C(=O)N[C@@H](CCC(N)=O)C(N)=O)(C3)NC(=O)[C@H](CC(N)=O)NC(=O)[C@H](Cc3ccccc3)NC(=O)[C@H](CCCCNC(=O)C(C)(c3ccccc3)c3ccccc3)NC(=O)[C@H](C)NC(=O)[C@H](CC(=O)O)NC(=O)[C@H](CC(=O)O)NC1=O)NC(=O)[C@H](CC(C)(C)C)NC(=O)[C@H](CC(=O)O)NC2=O (stereo partly drawn) [I-885, Ac-PL3-Asp-Npg-B5-Asp-Asp-Ala-[22PhPr]Lys-Phe-Asn-PyrS2-3Thi-BztA-Gln-NH2] | 0.032 | 2.39 | 43 (≈ 93.9 µg/mL) |  |  | > 20 |  |  |  |  |  |  | 
CC(=O)N1CCC[C@]12CC=CCCCC1(CCCC=CCCCOC(=O)N3CC[C@@](C(=O)N[C@@H](Cc4ccccc4)C(=O)N[C@@H](Cc4csc5ccccc45)C(=O)N[C@@H](CCC(N)=O)C(N)=O)(C3)NC(=O)[C@H](CC(C)C)NC(=O)[C@H](Cc3ccccc3)NC(=O)[C@H](C)NC(=O)[C@H](C)NC(=O)[C@H](CC(=O)O)NC(=O)[C@H](CC(=O)O)NC1=O)NC(=O)[C@H](CC(C)(C)C)NC(=O)[C@H](CC(=O)O)NC2=O (stereo partly drawn) [I-1072, Ac-PL3-Asp-Npg-B5-Asp-Asp-Ala-Ala-Phe-Leu-PyrS2-Phe-BztA-Gln-NH2] | 0.01 | 1.39 | 35 (≈ 66.9 µg/mL) |  |  | 10.5 |  |  |  |  |  |  | 0.723

More lines, now with the values ahead:

IC50 ([1]; read-out: beta-Catenin FP IC50) [µM] | chromatographic logD [2] | Solubility ([3]; Solubility (uM)) [µM] | inhibition at 10 µM ([4]; HEK293, 10 uM) [%] | IC50 ([4]; read-out: NanoBRET IC50) [µM] | IC50 ([4]; read-out: NanoBRET Abs IC50) [µM] | Solubility [3] [µM] | IC50 ([1]; fluorescence polarization, read-out: beta-Catenin FP IC50) [µM] | IC50 ([1]; read-out: FP EC50) [µM] | CHI Log D ([2]; pH 7.4) | IC50 ([4]; absolute IC50, read-out: NanoBRET Abs IC50) [µM] | inhibition at 10 µM ([4]; HEK293, @ 10 uM) [%] | IC50 ([1]; fluorescence polarization, beta-catenin, read-out: FP EC50) [µM] | SMILES
0.009 | 1.8 | 20 (≈ 45.1 µg/mL) |  |  | 27.8 |  |  |  |  |  |  |  | CC(=O)N1CCC[C@]12CC=CCCCC1(CCCC=CCCCOC(=O)N3CC[C@@](C(=O)N[C@@H](Cc4ccsc4)C(=O)N[C@@H](Cc4csc5ccccc45)C(=O)N[C@@H](CCC(N)=O)C(=O)N[C@@H](CCCCNC(=O)C4CCN(C5CCN(C)CC5)CC4)C(N)=O)(C3)NC(=O)[C@H](CC(N)=O)NC(=O)[C@H](Cc3ccccc3)NC(=O)[C@H](C)NC(=O)[C@H](C)NC(=O)[C@H](CC(=O)O)NC(=O)[C@H](CC(=O)O)NC1=O)NC(=O)[C@H](CC(C)(C)C)NC(=O)[C@H](CC(=O)O)NC2=O (stereo partly drawn) [I-907, Ac-PL3-Asp-Npg-B5-Asp-Asp-Ala-Ala-Phe-Asn-PyrS2-3Thi-BztA-Gln-[MeBipipAc]Lys-NH2]
0.005 | 1.98 |  |  |  | 18.5 | 50 (≈ 98.1 µg/mL) |  |  |  |  |  |  | CC(=O)N1CCC[C@]12CC=CCCCC1(CCCC=CCCCOC(=O)N3CC[C@@](C(=O)N[C@@H](Cc4ccsc4)C(=O)N[C@@H](Cc4csc5ccccc45)C(=O)N[C@@H](CCC(N)=O)C(N)=O)(C3)NC(=O)[C@H](CCCNC(N)=O)NC(=O)[C@H](Cc3ccccc3)NC(=O)[C@H](C)NC(=O)[C@H](C)NC(=O)[C@H](CC(=O)O)NC(=O)[C@H](CC(=O)O)NC1=O)NC(=O)[C@H](CC(C)(C)C)NC(=O)[C@H](CC(=O)O)NC2=O (stereo partly drawn) [I-805, Ac-PL3-Asp-Npg-B5-Asp-Asp-Ala-Ala-Phe-Cit-PyrS2-3Thi-BztA-Gln-NH2]
0.008 | 2.3 | 39 (≈ 70.4 µg/mL) |  | 17.1 | 29.3 |  |  |  |  |  |  |  | CC(=O)N1CCC[C@]12CC=CCCCC1(CCCC=CCCCOC(=O)N3CC[C@@](C(=O)N[C@@H](Cc4ccsc4)C(=O)N[C@@H](Cc4csc5ccccc45)C(N)=O)(C3)NC(=O)[C@H](CC(N)=O)NC(=O)[C@H](Cc3ccccc3)NC(=O)[C@H](C)NC(=O)[C@H](C)NC(=O)[C@H](CCC(=O)O)NC(=O)[C@H](CC(=O)O)NC1=O)NC(=O)[C@H](CC(C)(C)C)NC(=O)[C@H](CC(=O)O)NC2=O (stereo partly drawn) [I-786, Ac-PL3-Asp-Npg-B5-Asp-Glu-Ala-Ala-Phe-Asn-PyrS2-3Thi-BztA-NH2]
0.007 | 2.19 | 48 (≈ 93.4 µg/mL) |  | 7.5 | 6.2 |  |  |  |  |  | 50.9 |  | CC(=O)N1CCC[C@]12CC=CCCCC1(CCCC=CCCCOC(=O)N3CC[C@@](C(=O)N[C@@H](Cc4ccccc4Cl)C(=O)N[C@@H](Cc4csc5ccccc45)C(=O)N[C@@H](CCC(N)=O)C(N)=O)(C3)NC(=O)[C@H](CC(N)=O)NC(=O)[C@H](Cc3ccccc3)NC(=O)[C@H](C)NC(=O)[C@H](C)NC(=O)[C@H](CC(=O)O)NC(=O)[C@H](CC(=O)O)NC1=O)NC(=O)[C@H](CC(C)(C)C)NC(=O)[C@H](CC(=O)O)NC2=O (stereo partly drawn) [I-783, Ac-PL3-Asp-Npg-B5-Asp-Asp-Ala-Ala-Phe-Asn-PyrS2-2C1F-BztA-Gln-NH2]
